Assay results taken from PubChem BioAssay (NCI).
Several values for one entry are separate records, joined by “and”; a condition that tells them apart may be missing. Equal entries are not always repeated.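 How tested: cells in 96-well plates exposed to compound for 48 hours at five concentrations. The concentration for 50% growth inhibition is given as GI50. TGI is the concentration that stops growth completely.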 Where a SMILES comes first, the peptide text is derived from it. Bridges are numbered along the chain shown (N, C = ends). [ ]: non-standard residue; d: D form. ξ: configuration not given here. ξThr(3R) = C[C@@H](O)C(N)C(=O)O; S5 = C=CCCC[C@](C)(N)C(=O)O

System: MDA-MB-468 breast
Assay: NCI-60 cell line screen, 48 h

SMILES	GI50	TGI
CC(c1ccccc1)[C@@H](C(=O)Nc1ccc(I)cc1F)N1C(=O)N[C@H](c2ccc(OC[C@H](O)CO)cc2)C1=O (stereo not given in full)	11.5 µM	> 25 µM
C=C1C(=O)O[C@H]2[C@H]1CC/C(Cn1cc(-c3cccc(Cl)c3)nn1)=C\CC[C@@]1(C)O[C@@H]21	0.569 µM	2.14 µM
Cc1nc(-c2cnc(NC(C)C)n(C)c2=O)ccc1Oc1ccnc(-c2cnn(C)c2)c1	3.01 µM	73.9 µM
CCOC(=O)c1c(NC(=O)c2ccccc2)sc2c3c(ccc12)OCN(C)C3	1.52 µM	3.14 µM
CCN(CC)CCC(CNc1ccnc2cc(Cl)ccc12)c1ccccc1 (stereo not given)	2.16 µM	5.69 µM
COc1cccc(C2=C(c3cn(C)c4cc(F)ccc34)C(=O)NC2=O)c1	13.5 µM	> 25 µM
Cc1ccc(Cl)cc1NC(=O)c1cc2ccccc2cc1O	1.31 µM	7.25 µM
COc1cc(/C=C/C(=O)N2CCC=CC2=O)cc(OC)c1OC	1.73 µM	4.7 µM
O=C(Cc1csc2nc(-c3ccc(Cl)cc3)cn12)N/N=C/c1ccccc1O	1.57 µM	4.92 µM
COc1ccc(Cn2cc3c(c2)-c2oncc2CC3)cc1OC	0.0854 µM	0.254 µM
COc1ccc2nc3cc([N+](=O)[O-])ccc3c(NNc3ccccc3)c2c1	0.616 µM	5.37 µM
CC(C)(C)NC(=O)[C@H]1CC[C@H]2[C@@H]3CC[C@H]4NC(=O)C=C[C@]4(C)[C@H]3CC[C@]12C	63 µM and > 100 µM	> 100 µM
COc1ccc(C(=O)O[C@H]2[C@H](O[C@H]3[C@@H](O)COC(O[C@H]4C[C@H]5[C@@H]6CC=C7C[C@@H](O)CC[C@]7(C)[C@H]6CC[C@]5(C)[C@H]4[C@H](C)C(=O)CCC(C)C)[C@@H]3OC(C)=O)OC[C@@H](O)[C@@H]2O)c(C)c1 (stereo not given in full)	0.0104 µM	4.89 µM
CCOC(=O)/C(C#N)=C1\SS/C(=C(/C#N)C(=O)OCC)S1	15.6 µM	33 µM
Cc1ccc(-c2nc(N3CCNCC3)c3oc(-c4ccccc4)nc3n2)cc1	1.81 µM	3.8 µM
COc1ccc(-c2[nH]nc(N)c2-c2cc(OC)c3c(c2)OCO3)cc1	1.86 µM	6.28 µM
CC(=O)N[C@H](C(=O)N[C@@H](CCCNC(=N)N)C(=O)N[C@@H](CCCCN)C(=O)N[C@@H](CCCNC(=N)N)C(=O)NC(C(=O)N[C@@H](CC(C)C)C(=O)N[C@@H](CCCNC(=N)N)C(=O)N[C@@]1(C)CCC/C=C\CCC[C@@](C)(C(=O)N[C@@H](CCCNC(=N)N)C(=O)N[C@@H](CCC(=O)O)C(=O)N[C@@H](CC(C)C)C(=O)N[C@H](C(=O)N[C@@H](CCC(=O)O)C(N)=O)C(C)C)NC(=O)[C@H](CCC(N)=O)NC(=O)[C@H](CC(C)C)NC(=O)[C@H](CC(C)C)NC1=O)[C@@H](C)O)C(C)C (stereo partly drawn) (Ac-VRKR[ξThr(3R)]LR[S5]LLQ[S5]RELVE-NH2; staple (Z) 8-12)	7.65 µM	18.4 µM
O=C(Nc1ccc(-n2ccc3c(NC(=O)c4ccccc4)nccc32)cc1)Nc1cccc(C(F)(F)F)c1	2.47 µM	10.5 µM
O=C1c2ccccc2C(=O)c2c1ccc1c(=O)n(-c3ccccc3C(F)(F)F)nnc21	1.43 µM	3.71 µM
CCOc1ccc2c(c1)CN(Cc1ccc(Cl)cc1)CO2	16.3 µM	34.9 µM
Clc1ccc(Nc2nc(Nc3ccccc3)nc(Nc3ccc(-c4cc(-c5ccc(Cl)cc5)on4)cc3)n2)cc1	26 µM	> 100 µM
Cc1ccc(NC(=O)Nc2c(Cl)cccc2Cl)cn1	3.12 µM	12.5 µM

SMILES	GI50	TGI
Cc1ccc(/C=C/c2c(C(=O)/C=C/c3ccc(Cl)cc3)c(C)nc3ccccc23)cc1	2.01 µM	3.82 µM
Clc1ccc2ncc(-c3cccc(NC4CNC4)n3)n2c1	4.86 µM	20.5 µM
Nc1cc(C(F)(F)F)c(-c2cc(N3CCOCC3)nc(N3CCOCC3)n2)cn1	0.329 µM and 0.216 µM	2.5 µM and 1.41 µM
CN1CCN(c2ccc(NC(=O)c3cncnc3Nc3ccc(OCc4cccc(F)c4)c(Cl)c3)cc2)CC1	1.71 µM	8.75 µM
CCCCCCCCCCCCCCCCCCOc1ccccc1CC(=O)OCC[N+](CC)(CC)CC	0.904 µM	2.15 µM
O=C(Nc1cccc(-n2cc(-c3ccncc3)c(-c3ccc(O)c(Cl)c3)n2)c1)c1cc(C(F)(F)F)cc(C(F)(F)F)c1	3.8 µM	46 µM
O=C1c2cccnc2C(=O)c2c1c(C(=O)NCCn1ccnc1)c1ccccn21	2.34 µM	5.61 µM
OCc1ccc(N2CCc3cc(F)ccc3C2)cc1Cl	0.0101 µM	< 0.0182 µM
COc1ccccc1/C=C/C1=C(C)CCC(c2ccccc2OC)C1C (stereo not given)	0.118 µM	> 100 µM
CCN(CC)c1ccc2nc3c4ccccc4c(=O)cc-3n(-c3ccccc3)c2c1	0.333 µM	1.98 µM
c1ccc(-c2n(Cc3ccc4ccccc4c3)cc[n+]2Cc2ccc3ccccc3c2)cc1	0.245 µM	1.18 µM
O=c1c2ccccc2nc(-c2ccccc2Cl)n1-c1nnc(C(F)(F)F)s1	2.29 µM	7.81 µM
NC(Cc1c[nH]c2ccc(F)cc12)C(=O)O (stereo not given)	649 µM	> 2500 µM
COc1ccc(-c2nn(-c3ccc(NC(=O)c4cc(Cl)cc(Cl)c4)cc3)cc2-c2ccncc2)cc1Cl	7.06 µM	> 100 µM
COc1ccc(Cl)cc1Nc1nc(C(F)(F)F)ccc1C(=O)N/N=C/c1cccnc1	0.797 µM	4.66 µM
Nc1nnnc2nc[nH]c12	0.369 µM	
C[C@@H](NC(=O)c1ncnc(N)c1Cl)c1ncc(C(=O)Nc2cc(C(F)(F)F)c(Cl)cn2)s1	19.1 µM	52.5 µM
NC1=NC(=O)/C(=C/c2ccc3ncccc3c2)S1	> 17.1 µM	> 25 µM
COc1cc(/C=C/C(=O)/C=C/c2cc3ccc(Cl)cc3n(Cc3ccccc3)c2=O)ccc1O	1.65 µM	5.2 µM
NC(=O)CC1(O)C=C(Br)C(=O)C(Br)=C1	1.75 µM	7.22 µM
CC[C@]1(O)CC2CN(CCc3c([nH]c4ccccc34)[C@@](C(=O)OC)(c3cc4c(cc3OC)N(C=O)[C@H]3[C@@](O)(C(=O)OC)[C@H](OC(C)=O)[C@]5(CC)C=CCN6CC[C@]43[C@@H]65)C2)C1 (stereo not given in full)	< 0.005 µM	> 28.5 µM
